Measured values taken from US10988522B2, “Proteolically resistant cyclotides with angiotensin 1-7 like activity” (University of Southern California, priority 2016, dated 2021).

Experiments:
[1] = molecular target: T1, recombinant human MAS1 (Homo sapiens, UniProt P04201); assay: MAS1 activation: cell-based fluorescence assay of NO release in CHO cells stably transfected with MAS1; settings: for intracellular concentration of NO in the presence of MAS1 antagonist A779: A779 at 0.1 μM for 15 min before addition; for intracellular concentration of NO (fluorescence): no antagonist, 2 hours
T1 construct: expressed in transfected cells; host or cells: CHO cells, stably transfected with pTEJ-8 vector
T1 sequence (P04201 1-325): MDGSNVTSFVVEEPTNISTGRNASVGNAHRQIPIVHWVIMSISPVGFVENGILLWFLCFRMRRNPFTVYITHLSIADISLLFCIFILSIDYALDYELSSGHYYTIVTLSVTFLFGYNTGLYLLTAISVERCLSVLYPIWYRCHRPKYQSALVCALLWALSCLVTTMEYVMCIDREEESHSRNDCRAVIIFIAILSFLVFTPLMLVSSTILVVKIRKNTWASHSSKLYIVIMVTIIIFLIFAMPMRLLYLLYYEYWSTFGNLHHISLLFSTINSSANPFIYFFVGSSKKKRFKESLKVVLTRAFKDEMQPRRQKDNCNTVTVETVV
Experimental: CHO cells stably transfected with pTEJ-8 vector expressing recombinant human MAS1 clone are grown to confluency. After washing, cells are incubated for a short time in 700 μL of supplemented Tyrode's salts containing 10 μM 2-phenyl-4,4,5,5-tetramethylimidazoline-1-oxyl-3-oxide (PTIO), 100 μM 2,3-diaminonaftalene (DAN), and 1 mM L-arginine. When using antagonist for competition assays, cells are exposed to MAS1 antagonist A779 (D-Ala^7-AT 1-7) at 0.1 μM for 15 min before addition of the cyclotides to be tested. Different concentrations of the cyclotides to be analyzed are added to the cell medium and the plates are agitated for 1 min before being placed into the incubator for 2 hours. After 2 hours, the cellular supernatants are transferred to opaque 96 well plates, and the amount of released NO is measured by fluorescence (λex=380 nm, λem=425 nm).

[2] = Experimental: This was accomplished by incubating the corresponding peptides in human serum at 37° C. The quantitative analysis of undigested polypeptides was performed using liquid chromatography coupled with tandem mass spectrometry (LC-MS/MS). Naturally occurring MCoTI-cyclotides present a very rigid structure, which makes them extremely stable to proteolytic degradation.
Human serum was spun down at 15,000 rpm for 10 min to separate the lipid components. Peptides (about 15 μg dissolved in 15 μl PBS) were mixed with 150 μl human serum and incubated in a 37° C. water bath. Aliquot samples (15 μL) were taken at different time points and serum protein were precipitated with about 70% MeCN at 4° C. for 10 min. The supernatant was separated, lyophilized, dissolved in 5% MeCN in water containing 0.1% formic acid, and analyzed by HPLC-MS/MS.

[3] = tested on: human lung cancer cells; settings: through activation of MAS1; cited from earlier work
[4] = tested on: human lung adenocarcinoma xenografts; settings: cited from earlier work
[5] = tested on: cyclooxygenase-2 (COX-2); settings: xenograft tumor; cited from earlier work
[6] = tested on: cyclooxygenase 1 (COX-1); settings: same xenograft tumor; cited from earlier work

Compound	MAS1 agonist activity (summary statement) ([1]; MAS1-transfected CHO cells)	intracellular concentration of NO in the presence of MAS1 antagonist A779 ([1]; MAS1-transfected CHO cells)	intracellular concentration of NO (fluorescence) ([1]; MAS1-transfected CHO cells)	activity relative to that of peptide AT1-7 ([1]; at 10 nM, NO release assay)	τ1/2 in human serum [2] [min]	serum-stimulated growth of human lung cancer cells [3]	tumor growth [4]	COX-2 activity [5]	COX-1 activity [6]
GGVCPKILQRCRRDSDCPGACICRGNGYCGSGXRVYIHE [MCo-AT1-7, MCoTI-I cyclotide with AT1-7-derived peptide (Asp1 to diaminopropionic acid, Pro7 to Glu) grafted onto loop 6 via two isopeptide bonds]	potent MAS1 agonist, with similar activity to that of the peptide AT1-7	no increase in the intracellular concentration of NO was detected	increase the intracellular concentration of NO in a dose dependent manner	about 90%					
CC[C@H](C)[C@H](NC(=O)[C@H](Cc1ccc(O)cc1)NC(=O)[C@@H](NC(=O)[C@H](CCCNC(=N)N)NC(=O)[C@@H](N)CC(=O)O)C(C)C)C(=O)N[C@@H](Cc1c[nH]cn1)C(=O)N1CCC[C@H]1C(=O)O [AT1-7, DRVYIHP]		A similar profile was obtained	increase the intracellular concentration of NO in a dose dependent manner		44 ± 3	reduce serum-stimulated growth of human lung cancer cells both in vitro and in vivo	inhibit tumor growth	reduction in cyclooxygenase-2 (COX-2) activity	no effect
